From PubChem BioAssay (NCI)
“And” between values parts separate entries of the source, which are not always exact repeats. Equal entries are not always repeated.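 Step 1: Grow cells in 96-well plates. Step 2: Expose to compound for 48 hours at 5 concentrations. Step 3: Interpolate endpoints linearly; if unreached, use highest concentration. GI50: concentration for 50% inhibition of growth. TGI is the concentration that stops growth completely.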

What was measured:
Assay in all cases: NCI anticancer screen, dose series, 48 h
[1] = tested on: HOP-92 NSCLC
[2] = tested on: ACHN renal
[3] = tested on: UO-31 renal
[4] = tested on: EKVX NSCLC
[5] = tested on: OVCAR-4 ovarian
[6] = tested on: MALME-3M melanoma
[7] = tested on: NCI/ADR-RES ovarian
[8] = tested on: MCF7 breast
[9] = tested on: CAKI-1 renal
[10] = tested on: HCT-15 colon

SMILES	TGI [1]	TGI [2] [µM]	TGI [3] [µM]	TGI [4]	TGI [5] [µM]	TGI [6]	TGI [7]	TGI [8]	TGI [9]	TGI [10]	GI50 [1]	GI50 [2]	GI50 [3]	GI50 [4]	GI50 [5]	GI50 [6]	GI50 [7]	GI50 [8]	GI50 [9]	GI50 [10]
CC(=O)[C@@]1(O)CC[C@H]2[C@@H]3C[C@H](C)C4=CC(=O)CC[C@]4(C)[C@H]3[C@@H](O)C[C@@]21C	> 100 µM	> 100	> 100	> 100 µM	> 100	> 100 µM	> 100 µM	> 100 µM	> 100 µM	> 100 µM	–	–	–	–	–	–	–	–	–	–
COc1ncc(-c2ccc3nccc(-c4ccnnc4)c3c2)cc1NS(=O)(=O)c1ccc(F)cc1F	0.00872 µM and < 0.01 µM	> 74.3	–	1.23 µM and 1.73 µM	–	0.114 µM and 0.0222 µM	> 8.81 µM and 4.37 µM	> 10 µM and 11 µM	0.746 µM and 1.7 µM	> 4.83 µM and 5.11 µM	0.00109 µM and < 0.01 µM	0.0104 µM and < 0.0114 µM	0.00213 µM and < 0.01 µM	0.0138 µM and 0.013 µM	0.033 µM and 0.0217 µM	0.00473 µM and < 0.01 µM	0.0228 µM and 0.0246 µM	1.01 nM and < 10 nM	0.00521 µM and < 0.01 µM	6.32 nM and < 10 nM
COC(=O)c1c2c(c(C)[n+]([O-])c1C)C(=O)C=C(NCc1ccc(F)c(Cl)c1)C2=O	3.84 µM	1.81	2.37	2.27 µM	0.603	0.332 µM	1.63 µM	0.892 µM	1.9 µM	1.63 µM	1.69 µM	0.126 µM	1.05 µM	0.592 µM	0.151 µM	0.149 µM	0.265 µM	169 nM	0.0559 µM	85.5 nM
COc1cc2c3c(n(CCCN)c(=O)c2cc1OC)-c1cc2c(cc1/C3=C\CCN)OCO2	> 49.4 µM	45	45.7	15.9 µM	–	4.26 µM	> 100 µM	–	> 100 µM	> 100 µM	3.69 µM	5.81 µM	13.5 µM	5.07 µM	–	1.1 µM	> 96.1 µM	692 nM	23.6 µM	27000 nM
COc1cc(-c2nn(-c3cccc(NC(=O)Nc4cc(C(F)(F)F)cc(C(F)(F)F)c4)c3)cc2-c2ccncc2)ccc1Cl	0.64 µM	16.9	1.52	–	12.9	2 µM	7.25 µM	8.59 µM	2.93 µM	2.97 µM	0.107 µM	0.309 µM	0.612 µM	–	0.698 µM	0.677 µM	1.02 µM	563 nM	0.852 µM	756 nM
COc1ccc2c(=O)c3ccoc3n(CC=C(C)C)c2c1	> 63.7 µM	–	> 100	> 100 µM	> 100	18.7 µM	76.4 µM	> 100 µM	9.83 µM	> 100 µM	–	–	–	–	–	–	–	–	–	–
O=C1C(=O)c2ccccc2C(O)=C1CC=C(Br)Br	76.4 µM	92.3	62.1	–	75.9	60.4 µM	87.3 µM	> 100 µM	> 100 µM	> 100 µM	12.5 µM	4.71 µM	6.13 µM	–	11.7 µM	18.2 µM	5.33 µM	4290 nM	3.38 µM	368 nM
CC(C)(C)c1nn(-c2ccccc2)c2c1C(=O)CSC(c1ccccc1Cl)N2 (configuration not stated)	14.4 µM	19.3	19.1	26.1 µM	21.9	32.6 µM	7.54 µM	13.5 µM	22.2 µM	16 µM	0.82 µM	4.87 µM	3.03 µM	3.71 µM	8.48 µM	14.7 µM	0.632 µM	1030 nM	1.24 µM	2000 nM
Cc1cc2nc3c4cc(N)ccc4n(CCN(C)C)c3nc2cc1C	5.05 µM	9.7	4.8	12.5 µM	9.64	3.08 µM	9.95 µM	7.96 µM	6.28 µM	10.2 µM	0.527 µM	0.351 µM	0.439 µM	1.59 µM	1.79 µM	1.27 µM	0.501 µM	494 nM	0.462 µM	499 nM
N#Cc1nc2c(S(=O)(=O)c3ccccc3)c(N)n(Cc3cccnc3)c2nc1C#N	28.5 µM	> 100	> 100	> 100 µM	> 100	27.3 µM	> 100 µM	> 100 µM	> 100 µM	> 100 µM	4.71 µM	80.7 µM	13.5 µM	81.9 µM	> 100 µM	3.7 µM	92.5 µM	13100 nM	7.47 µM	> 100000 nM
Cc1ccccc1N=Nc1ccc(NC(=O)c2ccnn2C)c(C)c1	34.9 µM	> 100	> 100	> 100 µM	> 100	> 100 µM	> 100 µM	> 100 µM	> 100 µM	> 100 µM	6.99 µM	23.9 µM	11.2 µM	7.72 µM	8.71 µM	14.5 µM	63.7 µM	17800 nM	55.4 µM	68400 nM
COc1cc2cc(Oc3ccc(NC(=O)Nc4cccc(C(F)(F)F)c4)cc3)c(C)nc2cc1OC	3.96 µM	7.71	10.8	6.46 µM	9.7	4.9 µM	7.19 µM	5.43 µM	4.29 µM	22.2 µM	1.26 µM	1.64 µM	1.98 µM	1.48 µM	2.3 µM	1.71 µM	1.71 µM	1340 nM	1.32 µM	1850 nM
NC(N)=N/N=C\c1cccc(OCc2ccccc2)c1	7.47 µM	18.5	27.9	25.4 µM	27	13.5 µM	22.2 µM	3.75 µM	22.2 µM	12.9 µM	2.05 µM	4.29 µM	7.35 µM	11 µM	5.93 µM	3.35 µM	3.85 µM	1770 nM	7.5 µM	3290 nM
CCn1c(CN2CCN(Cc3ccccc3)CC2)nc2cc(NC(=O)c3cccs3)ccc21	40.3 µM	75.4	42.6	–	86.4	37.3 µM	> 100 µM	59.9 µM	63 µM	51.6 µM	12.3 µM	18.7 µM	15.3 µM	–	16.4 µM	18.6 µM	28.9 µM	19500 nM	18 µM	14100 nM
O=C1/C(=C/c2ccccc2)CN(C(=O)c2cccnc2)C/C1=C\c1ccccc1	23.6 µM	4.53	2.9	11.1 µM	13.8	18.9 µM	21.2 µM	1.46 µM	10.3 µM	1.38 µM	10.9 µM	1.99 µM	1.4 µM	2.86 µM	3.3 µM	4.78 µM	3.03 µM	322 nM	2.83 µM	331 nM
N[C@@H]1CCCC[C@H]1N.O=C([O-])C(=O)[O-].[Pt+4]	> 74 µM	45.3	43.6	> 100 µM	83.8	26.6 µM	30.4 µM	6.63 µM	39.3 µM	> 64.9 µM	25.5 µM	2.15 µM	8.47 µM	88.7 µM	4.09 µM	3.22 µM	0.0318 µM	224 nM	0.765 µM	646 nM
O=C1CCCCCCCC/C=C\CC(c2ccco2)O1 (configuration not stated)	94.9 µM	82.4	39.9	75.7 µM	–	> 100 µM	> 100 µM	> 100 µM	> 100 µM	77.9 µM	17 µM	23.9 µM	21.5 µM	26.7 µM	–	26.3 µM	34.4 µM	4810 nM	49.4 µM	23500 nM
CC1(C)N=C(N)N=C(N)N1c1ccc(OCCCCOc2ccc(S(=O)(=O)F)cc2)c(Cl)c1	10.9 µM	> 100	> 100	–	27.7	37.7 µM	> 100 µM	13 µM	> 47.2 µM	> 100 µM	0.671 µM	1.68 µM	24.4 µM	–	6.4 µM	2.38 µM	71.6 µM	130 nM	3.7 µM	1120 nM
CC1=C2C[C@H]3[C@@H](CC[C@@H]4CC(NS(C)(=O)=O)CC[C@@]43C)[C@@H]2CC[C@@]2(C1)O[C@@H]1C[C@H](C)CN[C@H]1[C@H]2C (some centres not stated)	12.7 µM	14.6	23.5	–	4.79	25.2 µM	28.3 µM	14.9 µM	22 µM	21.4 µM	1.15 µM	3.85 µM	10.7 µM	–	1.66 µM	9.75 µM	12.2 µM	3490 nM	7.63 µM	5900 nM
COc1ccccc1CCN=C1NC(=O)/C(=C/c2ccc3ncccc3c2)S1	22.1 µM	24.5	16.3	–	20.5	> 23 µM	> 25 µM	> 23.9 µM	> 15.6 µM	> 25 µM	6.02 µM	5.98 µM	5.25 µM	–	4.27 µM	7.44 µM	6.21 µM	1630 nM	3.52 µM	1320 nM
O=C1NC(O)C(c2c[nH]c3ccccc23)=C1c1c[nH]c2ccccc12 (configuration not stated)	> 25 µM	> 25	> 25	–	> 25	> 25 µM	> 25 µM	> 25 µM	> 25 µM	> 25 µM	4.42 µM	> 25 µM	15.7 µM	–	> 25 µM	> 25 µM	> 25 µM	> 25000 nM	> 25 µM	18400 nM
O=C1c2cc3c(cc2-c2c1c1ccc(Cl)cc1c(=O)n2CCCNCCO)OCO3	2.57 µM	1.44	1.87	3.42 µM	3.32	–	1.9 µM	0.179 µM	2.29 µM	2.25 µM	1.08 µM	0.0383 µM	0.0608 µM	1.63 µM	1.48 µM	–	0.0585 µM	17.6 nM	0.0684 µM	677 nM
Cc1ccc(-n2c3c(c4c(CN(C)C)c(O)ccc42)CCc2ccccc2C3=O)cc1	40 µM	36	38.2	> 100 µM	–	–	34.7 µM	38.8 µM	44.1 µM	35.8 µM	17.5 µM	16.3 µM	15.9 µM	38 µM	–	–	14.5 µM	19000 nM	17.2 µM	18300 nM
COc1c(OC)c(OC)c2c(c1OC)c(=O)c1ccccc1n2C	> 100 µM	> 100	> 100	> 100 µM	> 100	–	> 100 µM	> 100 µM	> 100 µM	> 100 µM	–	–	–	–	–	–	–	–	–	–
O=C(Nc1cc(Cl)cc(Cl)c1)c1ccc(NC2=C(Cl)C(=O)N(Cc3ccc(Cl)cc3Cl)C2=O)cc1	27.5 µM	48.9	3.25	71.4 µM	> 100	–	> 100 µM	12.9 µM	> 100 µM	95.3 µM	9.32 µM	19 µM	1.7 µM	21.2 µM	21.8 µM	–	29.7 µM	3180 nM	36.8 µM	7060 nM
COc1ccc(/C=C/C(=O)c2ccc(SC)cc2)cc1OC	31.2 µM	27.6	30.2	35.9 µM	> 100	–	27.3 µM	> 100 µM	25.6 µM	13.3 µM	13.7 µM	11.7 µM	13.3 µM	19.1 µM	40.5 µM	–	10.9 µM	> 100000 nM	7.5 µM	3100 nM
